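A five-concentration, 48-hour dose response in 96-well plates underlies each endpoint, interpolated linearly between surrounding concentrations. GI50 is the concentration that inhibits growth by half. The concentration for full growth arrest is given as TGI.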 Where a SMILES comes first, the peptide text is derived from it. [ ]: non-standard residue; d: D form. The star is where a group is joined. ξ: configuration not given here. ξF = NC(Cc1ccccc1)C(=O)O; Cbz = O=C(OCc1ccccc1)*; Aib = CC(C)(N)C(=O)O
Legend:
Experiment in all cases: NCI tumour cell line growth inhibition, 48 h
CAKI-1 renal = tested on: CAKI-1 renal
HCT-15 colon = tested on: HCT-15 colon
HOP-62 NSCLC = tested on: HOP-62 NSCLC
IGROV1 ovarian = tested on: IGROV1 ovarian
M14 melanoma = tested on: M14 melanoma
NCI/ADR-RES ovarian = tested on: NCI/ADR-RES ovarian
RXF 393 renal = tested on: RXF 393 renal
SW-620 colon = tested on: SW-620 colon
T-47D breast = tested on: T-47D breast
UO-31 renal = tested on: UO-31 renal

Compound	TGI (CAKI-1 renal) [µM]	TGI (HCT-15 colon) [µM]	TGI (HOP-62 NSCLC) [µM]	TGI (IGROV1 ovarian) [µM]	TGI (M14 melanoma) [µM]	TGI (NCI/ADR-RES ovarian) [µM]	TGI (RXF 393 renal) [µM]	TGI (SW-620 colon) [µM]	TGI (T-47D breast) [µM]	TGI (UO-31 renal) [µM]	GI50 (CAKI-1 renal) [µM]	GI50 (HCT-15 colon) [µM]	GI50 (HOP-62 NSCLC) [µM]	GI50 (IGROV1 ovarian) [µM]	GI50 (M14 melanoma) [µM]	GI50 (NCI/ADR-RES ovarian) [µM]	GI50 (SW-620 colon) [µM]	GI50 (T-47D breast) [µM]	GI50 (UO-31 renal) [µM]
Cn1c(=O)c2c(nc(NCCCCl)n2CC(=O)O)n(C)c1=O	> 100	> 100	> 100	> 100	> 100	> 100	> 100	> 100	> 100	> 100									
Cc1cn(C2CC(n3cc(Cn4cc(F)c(=O)[nH]c4=O)nn3)C(CO)O2)c(=O)[nH]c1=O (configuration not stated)	> 100	> 100	> 100	> 100	> 100	> 100	> 100	> 100	> 100	> 100									
N=C(N)SCCON1C(=O)c2ccccc2C1=O	> 100	> 100	> 100	> 100	> 100	> 100	> 100	> 100	> 100	> 100									
Cn1ccnc1S/C(=C\C=C(C#N)C#N)c1ccc(Cl)cc1	6.16	9.11	11.1	16.1	5.02	7.85	5.4	11.9	> 100	9.34									
CC(=O)O/C=C\OC1CCCC1(c1ccccc1)c1ccccc1 (configuration not stated)	14.3	4.7	25.4	6.08	5.75	8.53	5.06	4.72	6.19	3.61									
Brc1ccc(N=NN2CCCCC2)cc1	> 100	> 100	> 100	> 100	> 100	> 100	> 100	> 100	> 100	> 100									
Cc1ccc(S(=O)(=O)N/C(=C\C=C\c2ccccc2)C(=O)C(C)(C)C)cc1	> 100	> 100	44	> 100	> 100	> 100	> 100	> 100	> 100	> 100									
CCC(CCCN)Nc1cc(OC)cc2cccnc12 (configuration not stated)	> 100	> 100	> 100	> 100	> 100	> 100	> 100	> 100		> 100									
CCC(C)[C@H](NC(=O)N[C@H](C)c1ccccc1)C(=O)OC (some centres not stated)	> 100	> 100	> 100	> 100	> 100			> 100		> 100									
Cc1c(C)c(C)c(-n2[nH]c(=O)n(C)c2=O)c(C)c1C	> 100	> 100	> 100	> 100	> 100	> 100		> 100	> 100	> 100									
CC(C)CCCC(C)[C@H]1CCC2[C@@H]3CCC4Cc5nc6c(nc5C[C@]4(C)C3CC[C@@]21C)CC1CC[C@@H]2C(C[C@@H](O)[C@@]3(C)C2C[C@@H]2OC4(CCC(C)CO4)C(C)[C@@H]23)[C@@]1(C)C6 (some centres not stated)		> 100	> 100	> 100	> 100	> 100	> 100	> 100	> 100										
CCCCOC(=O)CNC(=O)OCCCCC#CC#CCCCCOC(=O)NCC(=O)OCCCC	> 100		> 100	> 100	> 100			> 100		> 100									
O=c1[nH]nc(Cc2ccccc2)n1/N=C/c1c[nH]c2ccccc12	81.8	> 100	> 100	> 100	> 100	> 100		> 100	> 100	> 100									
CCCCCc1cc(OC(=O)c2c(O)cc(OC)cc2CCCCC)cc(O)c1C(=O)O	34.5	30.7	30.7	32.5	38.1		30.8	36		26.6									
COC1=CC(=O)c2ccccc2C1(CCC=C(C)C)C1=NC(C)(C)CO1 (configuration not stated)	> 100	> 100	> 100	> 100	> 100		> 100	> 100		> 100									
CC1(C)OC2OC(COC(=O)C=[N+]=[N-])C3OC(C)(C)OC3C2O1 (configuration not stated)	> 100	> 100	> 100	> 100			> 100	> 100		> 100									
COC(=O)CCCc1ccc2c(c1)CC1(C2)Cc2cc3c(cc2C1)CCCC3		89.3	> 100	> 100	68.2	> 100	94.2		> 100	> 100									
CCNC(=O)Nc1cccc(C)n1	> 100		> 100	> 100	> 100		> 100	> 100	> 100	> 100									
Cc1nc2ccc(S(=O)(=O)Nc3ccc(Cl)cc3)cc2c(=O)n1NC(=O)CNc1ccc(Cl)cc1	> 100	> 100	> 100	> 100	> 100	> 100		> 100		> 100									
Cc1ccc(C(=O)OC[C@H]2CC[C@@H](n3cc(N(C)C4CCCCC4)c(=O)[nH]c3=O)O2)cc1	> 100	93	41.7	> 100	32.6	56.7	37.7	> 100		62.7									
CN(C)c1ccc(N2C(=S)SC(=Nc3ccccc3)C2=Nc2ccccc2)cc1	> 100	> 100	> 100	> 100	> 100	> 100	> 100		> 100	> 100									
N/N=C(\C(=O)Nc1c(Cl)cc([N+](=O)[O-])cc1Cl)C(c1cnc2ccc([N+](=O)[O-])cc2n1)[N+](=O)[O-] (configuration not stated)	> 100	> 100	> 100	> 100			> 100	> 100		> 100									
CCOC(C[Se]CC(OCC)OCC)OCC	> 100	> 100		93.2	> 100	> 100	85.8	> 100	> 100	> 100									

Compound	TGI (CAKI-1 renal) [µM]	TGI (HCT-15 colon) [µM]	TGI (HOP-62 NSCLC) [µM]	TGI (IGROV1 ovarian) [µM]	TGI (M14 melanoma) [µM]	TGI (NCI/ADR-RES ovarian) [µM]	TGI (RXF 393 renal) [µM]	TGI (SW-620 colon) [µM]	TGI (T-47D breast) [µM]	TGI (UO-31 renal) [µM]	GI50 (CAKI-1 renal) [µM]	GI50 (HCT-15 colon) [µM]	GI50 (HOP-62 NSCLC) [µM]	GI50 (IGROV1 ovarian) [µM]	GI50 (M14 melanoma) [µM]	GI50 (NCI/ADR-RES ovarian) [µM]	GI50 (SW-620 colon) [µM]	GI50 (T-47D breast) [µM]	GI50 (UO-31 renal) [µM]
CC(C)(NC(=O)OCc1ccccc1)C(=O)NC(Cc1ccccc1)C(=O)O (configuration not stated) (Cbz-[Aib]-[ξF]-OH)	> 100	> 100	> 100	> 100	> 100	> 100		> 100	> 100	> 100									
CC(=O)O[C@H]1CC[C@@]2(C)C(=CC[C@@H]3[C@@H]2CC[C@]2(C)C(c4cccnc4)=CC[C@@H]32)C1	> 100	> 100	> 100	> 100	> 100	34.2		> 100	55.7	> 100	8.38	4.48	6.24	26.7	5.67	3.99	5.81	2.81	5.47
CCC1C(=O)C[C@H]2[C@@H]3C(O)CC4=CC(=O)CC[C@]4(C)[C@H]3CC[C@]12C (some centres not stated)	> 50	> 50	> 50	> 50	> 50	> 50		> 50	> 50	> 50									
CC(C)(C)OC(=O)n1cc(C2CNC(=O)C23CCC(=O)N3Cc2ccccc2)c2ccccc21 (configuration not stated)	> 100		57.2	33.6	67.4	> 100	44.8	> 100	> 100	49									
O=C1C(Br)=CC2([N+](=O)[O-])CCNc3c(O)c4c5c(c3C2=C1Br)=NCCC=5C=N4 (configuration not stated)	5.25	2.16	11	4.27		6.52	7.76	4		22.9									
COC1C(O)CC(OC2C(C)OC(Oc3cc(O)c4c(O)c5c(cc4c3)C[C@@H]([C@H](OC)C(=O)[C@@H](O)[C@@H](C)O)[C@H](OC3CC(OC4CC(OC6CC(C)(O)C(O)C(C)O6)C(O)C(C)O4)C(O)C(C)O3)C5=O)CC2OC(C)=O)OC1C (some centres not stated)	> 100	> 100	> 100	> 100		> 100		> 100	> 100	> 100									
Oc1ccc(Cl)cc1C1=N/C(=N\CN2CCN(C/N=C3/N=C(c4cc(Cl)ccc4O)CC(c4ccccc4)N3)CC2)NC(c2ccccc2)C1 (configuration not stated)	97.6	> 100	> 100	> 100	> 100	> 100	43.3	> 100		> 100									
COc1ccc2c(c1)O[C@@H]1C(O)Oc3cc(OC)c(OC)cc3[C@]1(O)C2=O (some centres not stated)	> 100	> 100	> 100	> 100	> 100	> 100	> 100	> 100	> 100										
O=C(c1ccc(Cl)cc1)c1ccc(OCC(=O)N2CCN(c3ccccc3)CC2)cc1	> 100	> 100	> 100	> 100	> 100		> 100	> 100		> 100									
Cc1ccc(C(=O)N(C2CCCCC2)C2CCCCC2)cc1N=NN(C)C	27.2	27.1	25.2	32.4	32.6	47.8		24.5	38.7	26									
CCOC/N=C(/N)NC#N	> 100	45	> 100	> 100	> 100		> 100	35.3		> 100									
COc1cc(OC)c2c(O)cc(CC(C)O)cc2c1 (configuration not stated)	> 100	> 100	> 100	> 100	> 100		> 100	> 100		> 100									
COc1cc(-c2nc3cc(F)ccc3s2)ccc1O	> 100	> 100		> 100	> 100	> 100	> 100	> 100	15.3	> 100									
COC(=O)C12Oc3ccc(-c4ccc5c(c4O)C(=O)C4=CCC(C)C(O)C4(C(=O)OC)O5)c(O)c3C(=O)C1=CCC(C)C2O (configuration not stated)	4.7	3.46	4.12	3.81	3.46		3.03	2.65		2.79									
COc1ccc2c3c1OC1CC(O)C=CC31CCN(C)C2 (configuration not stated)	> 150	> 150	> 150	> 150		> 150	> 150	> 150		> 150									
Cc1c(-c2c(C)c3ccccc3n2S(=O)(=O)c2ccccc2)n(S(=O)(=O)c2ccccc2)c2ccccc12	> 100	> 100	> 87.3	> 100	> 100	> 100		> 100		> 100									
CC(=O)NCCCCNCCCNC(C)=O	> 100	> 100		> 100	> 100	> 100	> 100	> 100	> 100	> 100									
COc1ccc(CCn2cnc3ccccc32)cc1	> 100	> 100	> 100	> 100	> 100	> 100	> 100	> 100		> 100									
CSc1c(C(=O)Nc2ccccc2)c(N)nn1-c1ccccc1	> 100	> 100			> 100	> 100	> 100	> 100	> 100	> 100									
CCOC(=O)/C(=C\NCC(O)c1ccccc1)c1nc2ccccc2[nH]1 (configuration not stated)	> 100	74.3	> 100	57.4	93.5	67.9	> 100	> 100		94.4									
Cc1cnoc1NC1=CC(=O)C(=O)c2ccccc21	> 100	> 100	> 100	> 100	> 100	70.9		80.4	> 100	74.6									
C=CCC(C)C12CCNC(Cc3ccc(O)cc31)C2C (configuration not stated)		> 100	> 100	> 100	> 100	> 100	> 100	> 100	> 100	> 100									
